Measured values as given in patent US20040097502A1, “Pyrazoles as tgf inhibitors” (priority 2001, published 2004).

Assays:
[1] = system: TGF-β signaling (PAI-1 promoter linked to firefly luciferase in HepG2 cells); experiment: Assay 1: PAI-1 promoter luciferase reporter assay in HepG2 cells after exposure to TGF-β; format: cell-based; conditions: for IC50: Homo sapiens, HepG2 cells, PAI-1 promoter-luciferase, 1 ng/mL rhTGFβ-1, read-out: IC50 value in Assay 1 (inhibition of TGF-β induced firefly luciferase activity)
Method: The assay was performed in HepG2 cells stably transfected with the PAI-1 promoter (known to be a strong TGF-β responsive promoter) linked to a luciferase (firefly) reporter gene. The compounds were selected on their ability to inhibit luciferase activity after exposure to TGF-β. In addition cells were transfected with a second luciferase (Renilla) gene which was not driven by a TGF-β responsive promoter and was used as a toxicity control.
(96 well-)microplates are seeded, using a multidrop apparatus, with the stably transfected cell line at a concentration of 35000 cells per well in 200 μl of serum-containing medium. These plates are placed in a cell incubator.
18 to 24 hours later (Day 2), cell-incubation procedure is launched. Cells are incubated with TGF-β and a candidate compound at concentrations in the range 50 nM to 10 μM (final concentration of DMSO 1%). The final concentration of TGF-β (rhTGFβ-1) used in the test is 1 ng/mL. Cells are incubated with a candidate compound 15-30 mins prior to the addition of TGF-β. The final volume of the test reaction is 150 μl. Each well contains only one candidate compound and its effect on the PAI-1 promoter is monitored.
Columns 11 and 12 are employed as controls. Column 11 contains 8 wells in which the cells are incubated in the presence of TGF-β, without a candidate compound. Column 11 is used to determine the ‘reference TGF-β induced firefly luciferase value’ against which values measured in the test wells (to quantify inhibitory activity) may be compared. In wells A12 to D12, cells are grown in medium without TGF-β. The firefly luciferase values obtained from these positions are representive of the ‘basal firefly luciferase activity’. In wells E12 to H12, cells are incubated in the presence of TGF-β and 500 μM CPO (Cyclopentenone, Sigma), a cell toxic compound.
12 to 18 hours later (day 3), the luciferase quantification procedure is launched. The following reactions are performed using reagents obtained from a Dual Luciferase Assay Kit (Promega). Cells are washed and lysed with the addition of 10 μl of passive lysis buffer (Promega). Following agitation (15 to 30 mins), luciferase activities of the plates are read in a dual-injector luminometer (BMG lumistar). For this purpose, 50 μl of luciferase assay reagent and 50 μl of ‘Stop & Glo’ buffer are injected sequentially to quantify the activities of both luciferases. The mean Luciferase activity value obtained in wells A11 to H11 (Column 11, TGF-β only) is considered to represent 100% and values obtained in wells A12 to D12 (cells in medium alone) give a basal level (0%). For each of the compounds tested, a concentration response curve is constructed from which an IC50 value can be determined graphically.

SMILES	melting point [°C]	IC50 [1] [µM]	firefly and renilla luciferase activities (toxicity control) ([1]; 500 μM CPO in the presence of TGF-β, % of those obtained in column 11 (TGF-β only))
CS(=O)(=O)c1ccc(Nc2cc(-c3c[nH]nc3-c3ccccn3)ccn2)cc1 [Example 23, (4-Methanesulfonyl-phenyl)-[4-(3-pyridin-2-yl-1H-pyrazol-4-yl)-pyridin-2-yl]-amine]	134	≤ 5	
COc1ccc(Nc2cc(-c3c[nH]nc3-c3ccccn3)ccn2)cc1OC [Example 13, (3,4-Dimethoxy-phenyl)-[4-(3-pyridin-2-yl-1H-pyrazol-4-yl)-pyridin-2-yl]-amine]	210	≤ 5	
FC(F)(F)Oc1cccc(Nc2cc(-c3c[nH]nc3-c3ccccn3)ccn2)c1 [Example 19, [4-(3-Pyridin-2-yl-1H-pyrazol-4-yl)-pyridin-2-yl]-(3-trifluoromethoxy-phenyl)-amine]	102.8	≤ 5	
Cc1cccc(Nc2cc(-c3c[nH]nc3-c3ccccn3)ccn2)c1 [Example 11, [4-(3-Pyridin-2-yl-1H-pyrazol-4-yl)-pyridin-2-yl]-m-tolyl-amine]	194	≤ 5	
Cc1ccc(Nc2cc(-c3c[nH]nc3-c3ccccn3)ccn2)cc1 [Example 18, [4-(3-Pyridin-2-yl-1H-pyrazol-4-yl)-pyridin-2-yl]-p-tolyl-amine]	221	≤ 5	
COc1cc(Nc2cc(-c3c[nH]nc3-c3cccc(C)n3)ccn2)ccc1C#N [Example 24, 2-Methoxy-4-{4-[3-(6-methyl-pyridin-2-yl)-1H-pyrazol-4-yl]-pyridin-2-ylamino}-benzonitrile]	125	≤ 5	
COc1ccc(Nc2cc(-c3c[nH]nc3-c3ccccn3)ccn2)cc1 [Example 17, (4-Methoxy-phenyl)-[4-(3-pyridin-2-yl-1H-pyrazol-4-yl)-pyridin-2-yl]-amine]	219	≤ 5	
Clc1ccc(Nc2cc(-c3c[nH]nc3-c3ccccn3)ccn2)cc1 [Example 1]	216	≤ 5	
Cc1cc(Nc2cc(-c3c[nH]nc3-c3ccccn3)ccn2)ccc1Cl [Example 14, (4-Chloro-3-methyl-phenyl)-[4-(3-pyridin-2-yl-1H-pyrazol-4-yl)-pyridin-2-yl]-amine]	212	≤ 5	
CN1CCN(C(=O)c2ccc(Nc3cc(-c4c[nH]nc4-c4ccccn4)ccn3)cc2)CC1 [Example 26, (4-Methyl-piperazin-1-yl)-{4-[4-(3-pyridin-2-yl-1H-pyrazol-4-yl)-pyridin-2-ylamino]-phenyl}-methanone]	200	≤ 5	
O=C1C=CCC1 [CPO, Cyclopentenone, reference compound]			around 50%
CS(=O)(=O)c1cccc(Nc2cc(-c3c[nH]nc3-c3ccccn3)ccn2)c1 [Example 5]	146	≤ 5	
c1ccc(-c2n[nH]cc2-c2ccnc(NCc3ccco3)c2)nc1 [Example 4]	200	≤ 5	
c1ccc(-c2n[nH]cc2-c2ccnc(Nc3cccc(OCCN4CCCCC4)c3)c2)nc1 [Example 8]	115	≤ 5	

Continued, in another order:

melting point [°C]	IC50 [1] [µM]	SMILES	firefly and renilla luciferase activities (toxicity control) ([1]; 500 μM CPO in the presence of TGF-β, % of those obtained in column 11 (TGF-β only))
207	≤ 5	FC(F)(F)c1ccc(Nc2cc(-c3c[nH]nc3-c3ccccn3)ccn2)cc1 [Example 21, [4-(3-Pyridin-2-yl-1H-pyrazol-4-yl)-pyridin-2-yl]-(4-trifluoromethyl-phenyl)-amine]	
205	≤ 5	Clc1cccc(Nc2cc(-c3c[nH]nc3-c3ccccn3)ccn2)c1 [Example 10]	
218	≤ 5	CC(C)Oc1cccc(Nc2cc(-c3c[nH]nc3-c3ccccn3)ccn2)c1 [Example 22, (3-Isopropoxy-phenyl)-[4-(3-pyridin-2-yl-1H-pyrazol-4-yl)-pyridin-2-yl]-amine]	
220	≤ 5	Cc1ccc(Nc2cc(-c3c[nH]nc3-c3ccccn3)ccn2)cc1C [Example 20, (3,4-Dimethyl-phenyl)-[4-(3-pyridin-2-yl-1H-pyrazol-4-yl)-pyridin-2-yl]-amine]	
240	≤ 5	O=C(c1ccc(Nc2cc(-c3c[nH]nc3-c3ccccn3)ccn2)cc1)N1CCOCC1 [Example 25, Morpholin-4-yl-{4-[4-(3-pyridin-2-yl-1H-pyrazol-4-yl)-pyridin-2-ylamino]-phenyl}methanone]	
120	≤ 5	Cn1ccnc1COc1cccc(Nc2cc(-c3c[nH]nc3-c3ccccn3)ccn2)c1 [Example 28, [3-(1-Methyl-1H-imidazol-2-ylmethoxy)-phenyl]-[4-(3-pyridin-2-yl-1H-pyrazol-4-yl)-pyridin-2-yl]-amine]	
280	≤ 5	COc1cc(Nc2cc(-c3c[nH]nc3-c3ccccn3)ccn2)ccc1C#N [Example 7]	
141	≤ 5	c1ccc(-c2n[nH]cc2-c2ccnc(Nc3cccc(OCCN4CCCC4)c3)c2)nc1 [Example 9]	
224	≤ 5	c1ccc(-c2n[nH]cc2-c2ccnc(Nc3ccc(OCCN4CCCC4)cc3)c2)nc1 [Example 12, [4-(3-Pyridin-2-yl-1H-pyrazol-4-yl)-pyridin-2-yl]-[4-(2-pyrrolidin-1-yl-ethoxy)-phenyl]-amine]	
176	≤ 5	c1ccc(-c2n[nH]cc2-c2ccnc(Nc3ccc(OCCN4CCCCC4)cc3)c2)nc1 [Example 27, [4-(2-Piperidin-1-yl-ethoxy)phenyl]-[4-(3-pyridin-2-yl-1H-pyrazol-4-yl)-pyridin-2-yl]-amine]	
250	≤ 5	N#Cc1cc(Nc2cc(-c3c[nH]nc3-c3ccccn3)ccn2)ccc1Cl [Example 15, 2-Chloro-5-[4-(3-pyridin-2-yl-1H-pyrazol-4-yl)-pyridin-2-ylamino]-benzonitrile]	
228	≤ 5	N#Cc1cccc(Nc2cc(-c3c[nH]nc3-c3ccccn3)ccn2)c1 [Example 6]	
268	≤ 5	Oc1ccc(Nc2cc(-c3c[nH]nc3-c3ccccn3)ccn2)cc1 [Example 16, 4-[4-(3-Pyridin-2-yl-1H-pyrazol-4-yl)-pyridin-2-ylamino]-phenol]	
200	≤ 5	Fc1ccc(Nc2cc(-c3c[nH]nc3-c3ccccn3)ccn2)cc1 [Example 3]	
